Assays:
Format in all cases: cell-based
χ9640(pYA4088) = experiment: Minimum inhibitory concentrations of antibiotics for RASV-Sp strain χ9640(pYA4088); details: Salmonella Typhi strain χ9640(pYA4088); for MIC: Salmonella enterica, read-out: Minimum inhibitory concentration
Source text: (§1) Master seed and working seed banks of each vaccine organism in separate vials have been prepared for frozen storage in vegetable-based cryopreservative. […] Antibiotic sensitivity testing has confirmed that these strains are sensitive to ciprofloxacin, ampicillin, ceftriaxone, trimethoprim/sulfamethoxazole (Table 13). Ampicillin, ciprofloxacin, ceftriaxone and trimethoprim/sulfamethoxazole are typically tested for minimum inhibitory concentrations (MICs) for Salmonella.

χ9639(pYA4088) = experiment: Minimum inhibitory concentrations of antibiotics for RASV-Sp strain χ9639(pYA4088); details: Salmonella Typhi strain χ9639(pYA4088); for MIC: Salmonella enterica, read-out: Minimum inhibitory concentration
Source text: as §1

χ9633(pYA4088) = experiment: Minimum inhibitory concentrations of antibiotics for RASV-Sp strain χ9633(pYA4088); details: Salmonella Typhi strain χ9633(pYA4088)
Source text: as §1

CC1(C)S[C@@H]2[C@H](NC(=O)[C@H](N)c3ccccc3)C(=O)N2[C@H]1C(=O)O [ampicillin]
MIC (χ9640(pYA4088)): < 2 µg/mL | MIC (χ9639(pYA4088)): < 2 µg/mL

CO/N=C(\C(=O)N[C@@H]1C(=O)N2C(C(=O)O)=C(CSc3nc(=O)c(=O)[nH]n3C)CS[C@H]12)c1csc(N)n1 [ceftriaxone]
MIC (χ9640(pYA4088)): < 1 µg/mL | MIC (χ9639(pYA4088)): < 1 µg/mL

O=C(O)c1cn(C2CC2)c2cc(N3CCNCC3)c(F)cc2c1=O [ciprofloxacin]
MIC (χ9640(pYA4088)): < 0.25 µg/mL | MIC (χ9639(pYA4088)): < 0.25 µg/mL

trimethroprim-sulfamethoxazole
Minimum inhibitory concentration (χ9640(pYA4088)): <20 µg/mL | Minimum inhibitory concentration (χ9639(pYA4088)): <20 µg/mL | Minimum inhibitory concentration (χ9633(pYA4088)): <20 µg/mL
